Values quoted from earlier work as cited in PMC2602858 (Cancer epidemiology, biomarkers & prevention : a …, 2008).

Tests used:
[1] = humans, plasma
women = conditions: I3C 200 and 400 mg twice daily for 4 weeks
CYP1A2 = conditions: I3C 400 mg twice daily, four weeks
[2] = test system: urinary 2-hydroxyestrone: 16α-hydroxyestrone ratio; conditions: four weeks

effect on CYP1A2 (CYP1A2): marked induction
SMILES: OCc1c[nH]c2ccccc12 [I3C, indole-3-carbinol]
circulating products detected after oral I3C [1]: the only detectable circulating product was DIM
adverse effects (women): no adverse effects were reported or observed
change of estrone hydroxylation ratio ([2]; I3C 200 mg twice daily): change in the estrone hydroxylation ratio was obtained
change of urinary 2-hydroxyestrone: 16α-hydroxyestrone ratio ([2]; I3C 400 mg twice daily): doubling
